Experimental data taken from ChEMBL document CHEMBL3351431, “Synthesis and evaluation of C2-carbon-linked heterocyclic-5-hydroxy-6-oxo-dihydropyrimidine-4-carboxamides as HIV-1 integrase inhibitors” (Bioorg Med Chem Lett, 2015).

Legend:
[1] = biological target: Human immunodeficiency virus type 1 integrase (Human immunodeficiency virus 1, UniProt Q7ZJM1); assay: Inhibition of HIV-1 integrase strand transfer activity
[2] = system: Human immunodeficiency virus 1; assay: Antiviral activity against HIV1 infected in cell culture in presence of 10% FBS; type: functional, organism-based
[3] = system: Human immunodeficiency virus 1; assay: Antiviral activity against HIV1 infected in cell culture in presence of 45 mg/ml human serum albumin and 10% FBS; type: functional, organism-based
[4] = Clearance in Sprague-Dawley rat at 1 mg/kg, iv; type: ADME, organism-based; parameters: dose 1 mg/kg, route intravenous; conditions: in vivo
[5] = Half life in Sprague-Dawley rat at 1 mg/kg, iv; type: ADME, organism-based; parameters: dose 1 mg/kg, route intravenous; conditions: in vivo
[6] = Volume of distribution at steady state in Sprague-Dawley rat at 1 mg/kg, iv; type: ADME, organism-based; parameters: dose 1 mg/kg, route intravenous; conditions: in vivo, read-out: Vdss
[7] = Cmax in Sprague-Dawley rat at 5 mg/kg, po; type: ADME, organism-based; parameters: dose 5 mg/kg, route oral; conditions: in vivo
[8] = Tmax in Sprague-Dawley rat at 5 mg/kg, po; type: ADME, organism-based; parameters: dose 5 mg/kg, route oral; conditions: in vivo
[9] = AUC in Sprague-Dawley rat at 5 mg/kg, po; type: ADME, organism-based; parameters: dose 5 mg/kg, route oral; conditions: plasma
[10] = Oral bioavailability in Sprague-Dawley rat at 5 mg/kg; type: ADME, organism-based; conditions: in vivo

Human immunodeficiency virus type 1 integrase, sequence (Q7ZJM1 whole entry): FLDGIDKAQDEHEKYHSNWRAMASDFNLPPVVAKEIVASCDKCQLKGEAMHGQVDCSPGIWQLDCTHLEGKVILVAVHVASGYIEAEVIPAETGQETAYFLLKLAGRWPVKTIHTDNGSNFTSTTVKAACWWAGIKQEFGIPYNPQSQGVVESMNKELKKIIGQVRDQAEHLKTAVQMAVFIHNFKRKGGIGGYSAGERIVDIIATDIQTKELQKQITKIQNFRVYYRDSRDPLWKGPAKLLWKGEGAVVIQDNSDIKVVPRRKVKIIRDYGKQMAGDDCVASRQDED

Row | SMILES | IC50 [1] [nM] | EC50 [2] [nM] | EC50 [3] [nM] | clearance [4] [mL/min/kg] | half-life [5] [min] | Vd [6] [L/kg] | Cmax [7] [µM] | Tmax [8] [min] | AUC [9] [µM·h] | bioavailability [10] [%]
1 | Cn1c(-c2ccco2)nc(C(=O)NCc2ccc(F)cc2)c(O)c1=O | 21 | 424 | 14500 | – | – | – | – | – | – | –
2 | Cn1c(C2=CCOC2)nc(C(=O)NCc2ccc(F)cc2)c(O)c1=O | 19 | 206 | 1780 | – | – | – | – | – | – | –
3 | Cn1c(C2CCOCC2)nc(C(=O)NCc2ccc(F)cc2)c(O)c1=O | 5 | 6 | 28 | 2.6 | 34.8 | 0.12 | – | – | – | –
4 | Cn1c(C2CCOCC2)nc(C(=O)NCc2ccc(F)cc2S(C)(=O)=O)c(O)c1=O | 8 | 6 | 13 | 3.9 | 34.8 | 0.13 | – | – | – | –
5 | CN(C)S(=O)(=O)c1cc(F)ccc1CNC(=O)c1nc(C2CCOCC2)n(C)c(=O)c1O | 12 | 4 | 15 | – | – | – | – | – | – | –
6 | Cn1c(C2CCOCC2)nc(C(=O)NCc2ccc(F)cc2N2CCCCS2(=O)=O)c(O)c1=O | 11 | 4 | 11 | – | – | – | – | – | – | –
7 | Cn1c(C2CCOCC2)nc(C(=O)NCc2ccc(F)cc2-n2cncn2)c(O)c1=O | 6 | 10 | 18 | – | – | – | – | – | – | –
8 | Cc1ncnn1-c1cc(F)ccc1CNC(=O)c1nc(C2CCOCC2)n(C)c(=O)c1O | 8 | 9 | 14 | – | – | – | – | – | – | –
9 | Cc1cnnn1-c1cc(F)ccc1CNC(=O)c1nc(C2CCOCC2)n(C)c(=O)c1O | 13 | 8 | 18 | – | – | – | – | – | – | –
10 | Cn1ncnc1-c1cc(F)ccc1CNC(=O)c1nc(C2CCOCC2)n(C)c(=O)c1O | 9 | 4 | 7 | – | – | – | – | – | – | –
11 | Cn1c(C2CCOCC2)nc(C(=O)NCc2ccc(F)cc2N2CCN(C(C)(C)C)S2(=O)=O)c(O)c1=O | 17 | 2 | 7 | 41 | 13.2 | 0.61 | – | – | – | –
12 | CN1C(C)(C)CN(c2cc(F)ccc2CNC(=O)c2nc(C3CCOCC3)n(C)c(=O)c2O)S1(=O)=O | 6 | 2 | 7 | – | – | – | – | – | – | –
13 | Cn1cnnc1-c1cc(F)ccc1CNC(=O)c1nc(C2CCOC2)n(C)c(=O)c1O (racemic) | 18 | 28 | 27 | – | – | – | – | – | – | –
14 | Cn1c(C2CCOC2)nc(C(=O)NCc2ccc(F)cc2)c(O)c1=O (racemic) | 4 | 9 | 60 | 4.9 | 97.8 | 0.14 | 10.5 | 40.2 | 33.9 | 68
15 | Cn1c(C2COCC2O)nc(C(=O)NCc2ccc(F)cc2)c(O)c1=O (racemic) | 6 | 48 | 126 | – | – | – | – | – | – | –
16 | CSC1COCC1c1nc(C(=O)NCc2ccc(F)cc2)c(O)c(=O)n1C (racemic) | 3 | 7 | 33 | 3.6 | 64.8 | 0.15 | 8.04 | 100 | 39.5 | 67
17 | Cn1c(C2(C)CCCO2)nc(C(=O)NCc2ccc(F)cc2)c(O)c1=O (racemic) | 5 | 10 | 120 | – | – | – | – | – | – | –
18 | Cn1c(C2(C)CCCS2)nc(C(=O)NCc2ccc(F)cc2)c(O)c1=O (racemic) | 5 | 15 | 153 | – | – | – | – | – | – | –
19 | Cn1c(C2CCCCO2)nc(C(=O)NCc2ccc(F)cc2)c(O)c1=O (racemic) | 10 | 49 | 301 | – | – | – | – | – | – | –
20 | Cn1c(C2CCOC2)nc(C(=O)NCc2ccc(F)cc2S(C)(=O)=O)c(O)c1=O (racemic) | 9 | 14 | 33 | – | – | – | – | – | – | –
21 | CN(C)S(=O)(=O)c1cc(F)ccc1CNC(=O)c1nc(C2CCOC2)n(C)c(=O)c1O (racemic) | 10 | 4 | 25 | – | – | – | – | – | – | –
22 | Cn1c(C2CCOC2)nc(C(=O)NCc2ccc(F)cc2N2CCCCS2(=O)=O)c(O)c1=O (racemic) | 9 | 5 | 19 | 6 | 32.4 | 0.2 | 3.51 | 37.8 | 12.3 | 60
23 | Cn1c(C2CCOC2)nc(C(=O)NCc2ccc(F)cc2-n2cncn2)c(O)c1=O (racemic) | 4 | 7 | 18 | 47 | 25.2 | 0.98 | – | – | – | –
24 | Cc1ncnn1-c1cc(F)ccc1CNC(=O)c1nc(C2CCOC2)n(C)c(=O)c1O (racemic) | 12 | 14 | 18 | 37 | 13.8 | 0.76 | – | – | – | –
25 | Cc1cnnn1-c1cc(F)ccc1CNC(=O)c1nc(C2CCOC2)n(C)c(=O)c1O (racemic) | 10 | 13 | 28 | – | – | – | – | – | – | –
26 | Cn1ncnc1-c1cc(F)ccc1CNC(=O)c1nc(C2CCOC2)n(C)c(=O)c1O (racemic) | 6 | 5 | 11 | 12 | 30 | 0.36 | – | – | – | –
27 | Cn1c(C2CCOC2)nc(C(=O)NCc2ccc(F)cc2N2CCN(C(C)(C)C)S2(=O)=O)c(O)c1=O (racemic) | 16 | 2 | 22 | 31 | 14.4 | 0.36 | – | – | – | –
28 | CN1C(C)(C)CN(c2cc(F)ccc2CNC(=O)c2nc(C3CCOC3)n(C)c(=O)c2O)S1(=O)=O (racemic) | 10 | 2 | 22 | – | – | – | – | – | – | –
29 | CN1CCN(c2cc(F)ccc2CNC(=O)c2nc(C3CCOC3)n(C)c(=O)c2O)C1=O (racemic) | 6 | 7 | 30 | – | – | – | – | – | – | –
30 | COCCN1CCN(c2cc(F)ccc2CNC(=O)c2nc(C3CCOC3)n(C)c(=O)c2O)C1=O (racemic) | 3 | 5 | 27 | 15 | 27.6 | 0.44 | – | – | – | –
